The text below walks through data of US5594009A, “Fused pyrrolocarbazoles” (priority 1995, dated 1997).

Where only a bound is given, the exact number is not on record here.

For assay [1], the system named is choline acetyltransferase (ChAT) activity in dissociated rat embryonic spinal cord culture. The experiment in a line: Spinal Cord ChAT Activity Assay. In kind it is cell-based. To be noted: ChAT measured after 48 hours.
For assay [2], the system named is indoleamine 2,3-dioxygenase (IDO) mRNA in THP-1 cells. The experiment in a line: Inhibition of Induction By IFNγ of IDO mRNA. As to conditions: Homo sapiens, IDO/GAPD mRNA ratio, 48 hours, read-out: IDO mRNA, Phosphorimager units, % of IFNγ-treated cells; for mrna remaining at 0.4 µM: compound 400 nM, IFNγ 400 units/ml. In kind it is cell-based. On the procedure:
Fused pyrrolocarbazoles in accordance with our invention were tested for their ability to inhibit the induction by IFNγ of indoleamine 2,3-dioxygenase (IDO) mRNA in THP-1 cells, a human monocyte cell line.
Cell Culture: THP-1 cells (American Type Culture Collection, Rockville, Md.), a human monocytic leukemia cell line, were grown in RPMI 1640 medium (Mediatech, Herndon Valley, Va.) with 50 μM 2-mercaptoethanol and 10% fetal bovine serum. Cells were plated in T75 culture flasks, at 4×10^4 cells/cm^2 in 10 ml of medium, and were immediately treated with fused pyrrolocarbazoles at various concentrations. After 30 minutes recombinant (E. coli) IFNγ (Boehringer Mannheim Corporation,Indianapolis, Ind.) was added at 200-400 units/ml. Cells were incubated (37° C., 5% CO2 /95% Air) for 48 hours after treatment.
RNA Isolation: Cells were pelleted by centrifugation (50× g, 7 min.) and medium was decanted. The cells were then washed two times with phosphate buffered saline pH 7.2 (PBS) (Mediatech, Herndon Valley, Va.). The washed cell pellet was lysed in 2 ml RNAzol B (Tel-Test, Inc., Friendswood, Tex.). RNA was isolated by chloroform extraction, precipitated, and washed following the "RNAzol B isolation of RNA" protocol accompanying this product. RNA was then solubilized in H2 O, and the concentration and purity were determined by reading the absorbance at A260 nm and A280 nm. Finally, the RNA was reprecipitated in ethanol, overnight at -20° C.
cDNA Probes: Indoleamine 2,3-dioxygenase (IDO) cDNA was received from Sohan L. Gupta, Ph. D. (Hipple Cancer Research Center, Dayton, Ohio) (see Da., W. & Gupta, S. L. 168 Biochem. Biophys. Res. Commun. 1, 1990 and Hassanain, H. H. et al. 268 J. Biol. Chem. 5077, 1993). Glyceraldehyde-3-phosphate dehydrogenase (GAPD) cDNA was obtained through American Type Culture Collection (Rockville, Md.). These cDNA's were produced and purified using standard methods (see, Sambrook, Fritsch, Maniatis (1989) Molecular Cloning a Laboratory Manual/Second Edition 1, 1.21-1.24, 1.74-1.81, hereinafter in this Example, "Maniatis a") using Qiagen plasmid purification kits (Qiagen Inc., Chatsworth, Calif.). DNA concentration and purity were determined by absorbance at 280 nm and 260 nm. Specific DNA inserts were cut out by standard methods using restriction enzymes, and subsequently separated on agarose gels as in Maniatis (see, Sambrook, Fritsch, Maniatis (1989) Molecular Cloning a Laboratory Manual/Second Edition 1, 6.9-6.15, hereinafter in this Example, "Maniatis b"). cDNA probes were further purified for [^32 P] labeling using the Geneclean II DNA purification kit (BIO 101, Inc., La Jolla, Calif.). Probes were labeled with dCTP-α-^32 P (Amersham Corp., Arlington Heights, Ill.) by random primer labeling, using the Prime-a-GeneLabeling System (Promega Corp., Madison, Wis.).
Analysis and quantification of mRNA: IDO mRNA was detected by Northern blot analysis (see Maniatis a, p. 7.39-7.51) using standard methods. […] Quantification of IDO mRNA was carried out using a phosphorimager (Molecular Dynamics) in which density (i.e., amount of RNA) is expressed as relative phosphorimager units. […] GAPD mRNA measurement by phosphorimager quantification of Northern blots serves as a means to normalize for potential sample to sample differences in the amount of total RNA loaded on gels. […]

The target in a further assay is protein kinase C. The experiment in a line: PKC Activity Inhibition Assay. The format is biochemical. How it is done:
Fused pyrrolocarbazoles inhibited the activity of protein kinase C (Table VI). The protein kinase C assay has been disclosed (Murakata et al., U.S. Pat. No. 4,923,986; Kikkawa et al., J. Biol. Chem. 257:13341-13348 (1982)). The assay was performed with several concentrations of fused pyrrolocarbazoles. The concentration at which protein kinase C was 50% inhibited (IC50) was determined.

The target in the next assay is trkA tyrosine kinase (Homo sapiens, UniProt P04629). The experiment in a line: trkA Tyrosine Kinase Activity Inhibition Assay (ELISA). In kind it is biochemical. As to conditions: 16 μM ATP, 37° C., 15 min; read-out: INHIBITION OF trkA KINASE IC50. (In general: In an ELISA, binding on a coated surface is turned into a signal by an enzyme label.)
The test system of the next assay is AT-2 cells. The experiment in a line: Inhibition of Growth of Prostate Cancer Cell Line (MTS assay). As to conditions: 72 h; 3 days, MTS; read-out: AT-2 cell growth IC50. The format is cell-based. On the procedure: AT-2 cells are a prostate cancer cell sub-line derived from the Dunning H tumor, graciously provided to us by Dr. John Isaacs (John Hopkins, M. D.). Unlike the Dunning H tumor cells, AT-2 cells can be grown in vitro.
Methods: At-2 cells ([…]) were plated on tissue culture plastic in 96-well plates in the presence of RPMI-1640 medium containing 10% fetal calf serum, 250 nM dexamethasone, 2 mM glutamine, 1 mM sodium pyruvate, and penicillin/streptomycin antibiotics. The next day, compounds were added at 4 concentrations (10, 1, 0.1, 0.01 μM) to determine the approximate IC50 range. Cultures were assayed 3 days later for cell number using the MTS [(3-(4,5-dimethylthiazol-2-yl)-5-(3-carboxymethoxyphenyl)-2-(4-sulfophenyl)-2H-tetrazolium, inner salt)] assay. The MTS assay (purchased as a kit from Promega) measures the formation of an aqueous soluble formazan (detected by a plate reader at 490nm) produced by the bioreduction of a tetrazolium compound (MTS) in metabolically active cells via mitochondrial succinate dehydrogenase. After determining linearity of the substrate incubation time over a range of cell plating densities, the amount of product measured is directly proportional to cell number. MTS (333 ug/ml) and 25 μM phenazine methosulfate are mixed and added directly to the culture medium, and incubated at 37° C. in the 5% CO2 /95% air incubator for 0.5-4 h. Absorbance of the product at 490 nm is read on the BIO-TEK plate reader. Background values were obtained from wells containing culture medium with substrate solution, but no cells. In addition, values were also obtained from wells containing cells plated at day 0 and assayed on the day compound was added (day 1) in order to determine the number of cells at the time compound was added. After the initial dose-finding experiment was completed, subsequent experiments were set up so that there were 3 or more concentrations near the predicted IC50.
Background: Tetrazolium assays rely on reduction of a dye to a coloured formazan, in cell work by metabolically active cells.

Assay [3] deals with ChAT activity of basal forebrain cultures. The assay is described as follows: Basal Forebrain ChAT Activity Assay. In kind it is cell-based, rat. To be noted: Rattus norvegicus, 120 h, read-out: ChAT Activity (% of Control). How it is done: Fused pyrrolocarbazoles were tested for the ability to increase ChAT activity of basal forebrain cultures.
Methods: The basal forebrain was dissected from rat embryos (day 17 or 18 embryos) and the cells were dissociated with a neutral protease (Dispase™, Collaborative Research). Neurons were plated at a density of 5×10^4 cells/well (1.5×10^5 cells/cm^2) in poly-1-ornithine and laminin coated plates. Cells were cultured in serum-free N2 medium containing 0.05% BSA at 37° C. in a humidified atmosphere, 5% CO2 /95% air. ChAT activity was assessed 5 days after plating by using the ChAT assay as described in Example III(A)(1).

Assay [4] relates to lumbar motoneurons of chick embryos. The assay is described as follows: Inhibition of Motoneuron Death In Ovo. To be noted: for Number of motoneurons mean ± SD / % of motoneurons rescued versus control: E6-E9; for Number of motoneurons mean ± SD: one side of spinal cord. In kind it is in vivo.
Experimental: The samples (50 ul) were applied to the vascularized chorioallantoic membrane through a window in the egg shell as previously described (Oppenheim et al., 1988). Embryos were sacrificed on E10 and spinal cords were removed, fixed in Carnoy's solution (10% acetic acid, 60% ethanol, 30% chloroform), embedded in paraffin, sectioned at 8 um, and stained with thionin as described previously (Oppenheim et al., 1988). Motoneurons (identified by morphology and position) were counted by an individual blind to the treatment conditions in every tenth section according to previously established criteria (Oppenheim et al., 1982, Oppenheim, 1986).
The subject of the next assay is chick DRG neurons. The experiment in a line: DRG Neuron Survival Assay (calcein AM). In kind it is cell-based. As to conditions: Gallus gallus, DRG neuron, 48 hours, read-out: Neuronal Survival (% of Control). How it is done:
Fused pyrrolocarbazoles promoted dorsal root ganglion (DRG) neuronal survival in cultures of chick DRG neurons. Cell survival was measured by uptake of calcein AM, an analog of the viable dye, fluorescein diacetate. Calcein is taken up by viable cells and cleaved intracellularly to fluorescent salts which are retained by intact membranes of viable cells. Microscopic counts of viable neurons correlate directly with relative fluorescence values obtained with the fluorimetric viability assay. This method thus provides a reliable and quantitive measurement of cell survival in the total cell population of a given culture (Bozyczko-Coyne et al., J. Neur. Meth. 50:205-216, 1993).
Methods: Dorsal root ganglia were dissected from embryonic age day 9 chick embryos and dissociated cells prepared by subsequent Dispase (neutral protease, Collaborative Research) dissociation. Neurons were seeded at low density (3×10^4 cells/cm^2) into 96 well poly-L-ornithine and laminin coated plates. Cells were cultured for 48 hours in serum-free N2 medium (Bottenstein and Sato, 1979) at 37° C. in a humidified atmosphere, 5% CO2 /95% air. Cell survival was assessed at 48 hours using the viable fluorimetric assay described above.

trkA tyrosine kinase, sequence (P04629 33-796): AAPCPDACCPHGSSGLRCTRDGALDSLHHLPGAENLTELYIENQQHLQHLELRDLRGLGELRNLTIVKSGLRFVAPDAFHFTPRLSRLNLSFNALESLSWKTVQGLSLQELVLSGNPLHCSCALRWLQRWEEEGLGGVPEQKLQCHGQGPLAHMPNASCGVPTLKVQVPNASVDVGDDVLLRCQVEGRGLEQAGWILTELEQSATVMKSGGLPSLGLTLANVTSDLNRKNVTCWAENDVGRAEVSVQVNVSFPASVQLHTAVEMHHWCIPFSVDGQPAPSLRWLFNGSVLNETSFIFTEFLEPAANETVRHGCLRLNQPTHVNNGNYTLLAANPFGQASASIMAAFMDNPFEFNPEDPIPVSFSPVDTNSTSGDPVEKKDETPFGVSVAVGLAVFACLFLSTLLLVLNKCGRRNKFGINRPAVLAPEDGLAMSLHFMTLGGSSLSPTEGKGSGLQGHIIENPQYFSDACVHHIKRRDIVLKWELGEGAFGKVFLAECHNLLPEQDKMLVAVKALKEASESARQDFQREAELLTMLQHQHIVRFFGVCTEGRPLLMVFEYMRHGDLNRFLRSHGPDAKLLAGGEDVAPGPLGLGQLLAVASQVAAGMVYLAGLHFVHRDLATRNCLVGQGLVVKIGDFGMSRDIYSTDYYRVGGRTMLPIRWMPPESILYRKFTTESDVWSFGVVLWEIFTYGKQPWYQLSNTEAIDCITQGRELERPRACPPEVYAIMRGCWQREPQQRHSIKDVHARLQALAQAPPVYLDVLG
Experimental for trkA tyrosine kinase: These compounds were then tested for the ability to inhibit substrate phosphorylation by the trkA tyrosine kinase.
Plates were washed three times with TBST, followed by two washes with TBS (TBST sans Tween-20). Fused pyrrolocarbazoles were then added at various concentrations to a reaction mixture (50 mM HEPES, pH 7.4, 5 mM MnCl2, 5 mM MgCl2, 140 mM NaCl, 16 μM ATP, and 15 ng trkA in a total volume of 1001 μL.). As a negative control, 100 mM EDTA was included in the reaction solution. The plates were then incubated at 37° C. for 15 min. The detection antibody, monoclonal anti-phosphotyrosine antibody (UBI), was added at a dilution of 1:2000 in TBST, and incubated for 1 hour at 37° C. Plates were then washed three times with TBST, followed by a 1 hour incubation at 37° C. with alkaline phosphatase-labeled goat anti-mouse IgG (1:2000 in TBST (Bio-Rad)). After washing three times with TBST followed by two washes with TBS, a colored product was produced by using NADPH as substrate for alkaline phosphatase, and the coupled reactions of diaphorase and alcohol dehydrogenase (GIBCO-BRL ELISA amplification system). The colored product was read at 490 nm in a microplate reader (Biotek).

Broadly, the IC50 is the concentration needed to halve the response being measured. Regarding `O=C1NCc2c1c1c(c3[nH]c4ccc(Br)cc4c23)Cc2ccccc2-1` [Compound I-9, 3-Bromo-5H, 6H, 12H, 13H-indeno[2,3-a]pyrrolo[3,4-c]carbazole-7(7H)one], in assay [1], the “Spinal Cord ChAT Activity, % of Control, untreated cultures” value (“Spinal Cord ChAT Activity, % of Control” below) was 185 % of Control. Besides, in assay [2], the mrna remaining at 0.4 µM was 60%. The IC50 on protein kinase C is 4500 nM.

In the case of `O=C1NCc2c3c(c4[nH]c5ccc(Br)cc5c4c21)Cc1ccccc1-3` [Compound I-11, 3-Bromo-6H, 7H, 12H, 13H -indeno[2,3-a]pyrrolo[3,4-carbazole-5(5H)one], the “Spinal Cord ChAT Activity, % of Control” value in assay [1] is recorded as 188 % of Control. Moreover, the mrna remaining at 0.4 µM in assay [2] turned out to be 49%. This compound had an IC50 at protein kinase C of 450 nM.

Regarding `O=C1NCc2c1c1c(c3c2c2ccccc2n3CCO)Cc2ccccc2-1` [Compound I-29, 13-(2-Hydroxyethyl)-5H,6H,12H,13H-indeno[2,3-a]pyrrolo[3,4-c]carbazole-7(7H)one], the half-inhibitory concentration (IC50) on trkA tyrosine kinase amounted to 18.4 nM; with AT-2 cells, 3260 nM; against protein kinase C, 40 nM. Besides, the “Spinal Cord ChAT Activity, % of Control” value in assay [1] is reported as 154 % of Control. Moreover, the mrna remaining at 0.2 µM in assay [2] (compound 200 nM, IFNγ 200 units/ml) stood at 57%. In assay [3] (100 nM), the activity at 0.1 µM stood at 140%. The activity at 0.25 µM in assay [3] (250 nM) was found to be 189%. Also, in assay [3] (500 nM), the activity at 0.5 µM amounted to 194%. Moreover, the activity at 1 µM in assay [3] (1000 nM) is 210%.

With `O=C1NCc2c1c1c(c3[nH]c4ccc(C=Cc5ccccn5)cc4c23)Cc2ccccc2-1` [Compound I-32, 3-(2-Pyridinylethenyl)-5H,6H,12H,13H-indeno[2,3-a]pyrrolo[3,4-c]carbazole-7(7H)-one], the “Number of motoneurons mean ± SD” value is recorded as 9657 ± 529 in assay [4] (0.06 ug/egg daily), 10215 ± 481 in assay [4] (0.3 ug/egg daily), 12357 ± 499 in assay [4] (0.6 ug/egg daily) and 11743 ± 1497 in assay [4] (1.2 ug/egg daily). Moreover, the “% of motoneurons rescued versus control” value was determined as 8% in assay [4] (0.3 ug/egg daily), 31% in assay [4] (0.6 ug/egg daily) and 24% in assay [4] (1.2 ug/egg daily). The “increase in motoneuron survival in treated vs. control embryos, maximal effect” value in assay [4] (0.6 ug/egg, vehicle-treated control) is recorded as 31%. Besides, in assay [4] (daily dose), the “dose at which the maximal effect was achieved” value is recorded as 0.6 ug/egg. In the assay on chick DRG neurons (100 nM), the viability at 0.1 µM was 173%. In addition, in the assay on chick DRG neurons (250 nM), the viability at 0.25 µM was 164%. Also, the viability at 0.5 µM with chick DRG neurons (500 nM) is 151%. For the same compound, at trkA tyrosine kinase, the IC50 was over 1000 nM. In addition, the “Spinal Cord ChAT Activity, % of Control” value in assay [1] was 288 % of Control. For the same compound, the mrna remaining at 0.4 µM in assay [2] was 70%.
